Test results taken from patent US20230277491A1, “PHARMACEUTICAL COMBINATION COMPRISING GLYCOLIC ACID AND L-ALANINE” (priority 2020, published 2023).

How the values were obtained:
dopaminergic neurons = details: after DJ-1 knock-out or paraquat treatment; cited from earlier work
[1] = male Wistar rats; cited from earlier work
patients with ALS = experiment: Individualised clinical trials in ALS patients: therapeutic effect (creatine kinase, gripping force, muscle strength); details: human patients, in some cases
Method: Gripping force measured in kilograms with the help of a Digital Hand Dynamometer once a week to every two weeks.
Evolution of the muscle strength on the right arm was measured once a week to every two weeks using the Janda Muscle Strength Scale.
Patients with ALS were recruited for the study and agreed to all legal regulations surrounding the curative attempt. Potential side effects were closely monitored. Liver and kidney values were checked once a week (1 day after dosing), in order to monitor whether any unwanted side effects were observed. To test the therapeutic effect, the evolution of the ALS score and strength evolution were measured over time.
All patients also received 6 grams of L-Alanine per day.
The above-mentioned treatment regime was conducted in 4 patients, either with FUS, TARDBP or SOD-1 mutations underlying their ALS. […] The patients were treated between 4 months and 17 months.

cortical neurons = experiment: Calcium imaging on primary cortical neurons (SOCE, glutamate-triggered action potential); type: cell-based, mouse; details: FIG. 15
Method: GA enhances SOCE and calcium influx during glutamate-triggered action potentials. Fluorescent microscopy images in a show the effect of calcium, glutamate and ionomycin on intracellular calcium in Fluo-4 AM charged cortical neurons at different time points.
Primary cortical neuronal cell cultures were prepared from E15.5 embryos. Briefly, brain cortex from E15.5 pregnant wild type C57Bl/6J or PARK-7^−/− mice were dissected and placed in cold HBSS without Ca2+ and Mg2+(Sigma Aldrich H6648, Germany, EU). Once freed from all other cerebral structures, cortex were placed in an empty petri dish, sliced with the help of a scalpel and trypsinized using a 1:1 mixture of Trypsin (Gibco 25200-056):HBSS at 37° C. for 7 min. The samples were then centrifuged for 4 min. at 800 rpm and the supernatant was replaced with plating medium (89% Neurobasal A, 8.9% FBS, 0.9% L-glutamine, 0.9% N2 supplement and 0.4% P/S). […]
Variations in the Fluo-4 AM fluorescence during Ca^2+ and/or glutamate addition were analyzed using FIJI Image Analysis Freeware. The ROIs were determined using the standard deviation function for the stack of images before and after the addition of 1.8 mM CaCl2 (for changes in intracellular Ca^2+) or before and after the addition of glutamate. […] Once all ROIs were identified and selected, the MFI of each ROI for each time-point was measured with the measure function of the program to generate a matrix with the raw MFI values for each ROI for each time point. […] To determine the effect of GA and DL on Ca^2+ influx after CaCl2 addition and after glutamate addition, all ROIs where normalized using a max-min normalization as previously described: ([Ca^2+]Ca—[Ca^2+]t0/([Ca^2+]ionomycine-[Ca^2+]t0) Once the new matrix with the normalized values was generated, we determined the area under the curve (AUC) in excel using the formula: (Y1+Y2)/2*(X2−X1). The AUC was then obtained as the sum of all the generated values.

Q: Which “survival of dopaminergic neurons” value (dopaminergic neurons) does the source give for `O=C(O)CO` [GA, 2-hydroxyethanoic acid] here?
A: rescued the survival of dopaminergic neurons

Q: And the “kidney findings after administration” value [1]?
A: formation of hyperoxaluria and calcium oxalate precipitates

Q: And the “GA dose at which efficacious doses were first observed” value (patients with ALS)?
A: above 70 mg/kg

Q: And the “intracellular calcium during the glutamate-triggered action potential” value (cortical neurons; 2.5 mM GA)?
A: higher increases in intracellular calcium during the action potential

Q: And the “storage operated calcium entry (SOCE)” value (cortical neurons; 2.5 mM GA, after addition of calcium)?
A: increased storage operated calcium entry (SOCE)

Q: What about the calcium transients (cortical neurons) of the same compound?
A: bigger calcium transients
